Biological target: T1, recombinant CETP (rCETP) (Homo sapiens, UniProt P11597)
T1 sequence (P11597 18-493): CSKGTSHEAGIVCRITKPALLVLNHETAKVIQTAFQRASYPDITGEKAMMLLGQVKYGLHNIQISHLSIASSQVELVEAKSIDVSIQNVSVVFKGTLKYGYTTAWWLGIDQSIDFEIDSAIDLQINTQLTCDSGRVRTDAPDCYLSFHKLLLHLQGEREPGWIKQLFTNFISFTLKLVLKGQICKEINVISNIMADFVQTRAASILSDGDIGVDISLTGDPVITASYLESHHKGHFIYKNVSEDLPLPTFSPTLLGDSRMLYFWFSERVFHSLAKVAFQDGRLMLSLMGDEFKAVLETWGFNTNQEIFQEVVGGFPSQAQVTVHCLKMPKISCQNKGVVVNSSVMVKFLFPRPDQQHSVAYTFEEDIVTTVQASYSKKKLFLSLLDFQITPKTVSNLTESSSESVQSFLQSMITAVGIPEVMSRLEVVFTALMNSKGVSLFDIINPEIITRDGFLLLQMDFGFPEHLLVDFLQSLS
Test: RTA assay using recombinant CETP (2% RTA)
Format: biochemical
Details: RTA assay in 2% human serum; read-out: IC50
Method: In Vitro Radioactive Assays of CETP-Catalyzed CE and TG Transfer (RTA Assay)
Reagents and sources are: [3H] cholesteryl oleate (GE #TRK.886), [3H]
Both assays measure the transfer of [3H] cholesteryl oleate or [3H]triolein from exogenous LDL to HDL.
After a brief vortex, the solution is sonicated until clear and mixed with 20 mL of fresh human serum. The mixture is incubated overnight at 37° C. […] Once isolated the particles are dialyzed 3× in CETP buffer (50 mM Tris, pH 7.4, 100 mM NaCl, 1 mM EDTA). Human HDL is purchased from Intracel and used as the acceptor particles.
Transfer assays are performed in a 96-well v-bottom polypropylene plate. […] 1 μL of each test compound diluted in DMSO is added to 47 μL of assay cocktail per well and incubated at 37° C. for 1 hour. To initiate the transfer reaction, 2 μL radiolabeled LDL is added. After an additional 60 min of incubation at 37° C., the transfer action is terminated by precipitation of LDL with an equal volume of 20% W/V PEG 8000. The plates are centrifuged at 2000 rpm for 30 minutes at 4° C. A 40 μL aliquot of the HDL-containing supernatant is transferred to a Packard Optiplate with 200 μL of MicroScint 20. After mixing, plates are counted by liquid scintillation. Counts present in the supernatant for blanks (wells containing only HDL acceptor, CETP buffer and DMSO) are subtracted from those containing test compounds and used to correct for non-specific transfer.
Comparison of the counts of samples with inhibitors to an uninhibited (DMSO only) positive control yield a percent inhibition. A plot of percent inhibition vs. log of inhibitor concentration, fit to a Sigmoidal 4 parameter equation is used to calculate IC50.

Compound | IC50 [nM]
COc1ccc(Cl)cc1-c1ccc(N2CCC2)nc1CN1C(=O)O[C@H](c2cc(C(F)(F)F)cc(C(F)(F)F)c2)[C@@H]1C [Example 27, (4S,5R)-3-{[6-azetidin-1-yl-3-(5-chloro-2-methoxyphenyl)pyridin-2-yl]methyl}-5-[3,5-bis(trifluoromethyl)phenyl]-4-methyl-1,3-oxazolidin-2-one] | 3
COC(=O)c1cc(-c2ccc(OC)c(-c3ccc(N4CCC4)nc3CN3C(=O)O[C@H](c4cc(C(F)(F)F)cc(C(F)(F)F)c4)[C@@H]3C)c2)no1 [Example 28] | 80
COC(=O)c1c(C)c(-c2ccc(OC)c(-c3ccc(N4CCC4)nc3CN3C(=O)O[C@H](c4cc(C(F)(F)F)cc(C(F)(F)F)c4)[C@@H]3C)c2)nn1C [Example 29] | 14
COC(=O)c1cnc(-c2ccc(OC)c(-c3ccc(N4CCC4)nc3CN3C(=O)O[C@H](c4cc(C(F)(F)F)cc(C(F)(F)F)c4)[C@@H]3C)c2)cn1 [Example 30] | 133
COC(=O)CCc1ccc(OC)c(-c2ccc(N3CCC3)nc2CN2C(=O)O[C@H](c3cc(F)c(F)c(F)c3)[C@@H]2C)c1 [Example 31] | 97
COC(=O)CC(C)(C)c1ccc(OC)c(-c2ccc(N3CCC3)nc2CN2C(=O)O[C@H](c3cc(F)c(F)c(F)c3)[C@@H]2C)c1 [Example 32] | 107
COc1ccc([C@H]2CC[C@H](C(=O)OC)CC2)cc1-c1ccc(N2CCC2)nc1CN1C(=O)O[C@H](c2cc(F)c(F)c(F)c2)[C@@H]1C [Example 35] | 439
COC(=O)c1ccc(-c2cc(-c3ccc(N4CCC4)nc3CN3C(=O)O[C@H](c4cc(F)c(F)c(F)c4)[C@@H]3C)c(OC)cc2F)c(C)c1 [Example 36] | 26
COc1cc(F)c([C@H]2C[C@@H](C(=O)OC)C2)cc1-c1ccc(N2CCC2)nc1CN1C(=O)O[C@H](c2cc(C(F)(F)F)cc(C(F)(F)F)c2)[C@@H]1C [Example 37] | 17
COc1cc(F)c([C@H]2C[C@H](C(=O)OC)C2)cc1-c1ccc(N2CCC2)nc1CN1C(=O)O[C@H](c2cc(C(F)(F)F)cc(C(F)(F)F)c2)[C@@H]1C [Example 38] | 5
COC(=O)Cc1ccc(OC)c(-c2c(C)cc(N3CCC3)nc2CN2C(=O)O[C@H](c3cc(C(F)(F)F)cc(C(F)(F)F)c3)[C@@H]2C)c1 [Example 40] | 3
COC(=O)c1cc(C)c(-c2ccc(OC)c(-c3ccc(N4CCC4)nc3CN3C(=O)O[C@H](c4cc(C(F)(F)F)cc(C(F)(F)F)c4)[C@@H]3C)c2)s1 [Example 46, Methyl 5-{3-[6-azetidin-1-yl-2-({(4S,5R)-5-[3,5-bis(trifluoromethyl)phenyl]-4-methyl-2-oxo-1,3-oxazolidin-3-yl}methyl)pyridin-3-yl]-4-methoxyphenyl}-4-methylthiophene-2-carboxylate] | 10
COC(=O)c1ccc(-c2ccc(OC)c(-c3ccc(N4CCC4)nc3CN3C(=O)O[C@H](c4cc(C(F)(F)F)cc(C(F)(F)F)c4)[C@@H]3C)c2)o1 [Example 47, Methyl 5-{3-[6-azetidin-1-yl-2-({(4S,5R)-5-[3,5-bis(trifluoromethyl)phenyl]-4-methyl-2-oxo-1,3-oxazolidin-3-yl}methyl)pyridin-3-yl]-4-methoxyphenyl}-2-furoate] | 34
COC(=O)c1ccc(-c2ccc(OC)c(-c3ccc(N4CCC4)nc3CN3C(=O)O[C@H](c4cc(C(F)(F)F)cc(C(F)(F)F)c4)[C@@H]3C)c2)s1 [Example 48] | 65
COC(=O)c1cc(-c2ccc(OC)c(-c3ccc(N4CCC4)nc3CN3C(=O)O[C@H](c4cc(C(F)(F)F)cc(C(F)(F)F)c4)[C@@H]3C)c2)cs1 [Example 49] | 98
COC(=O)c1scc(-c2ccc(OC)c(-c3cc(Br)c(N4CCC4)nc3CN3C(=O)O[C@H](c4cc(C(F)(F)F)cc(C(F)(F)F)c4)[C@@H]3C)c2)c1C [Example 50] | 15
COC(=O)c1cc(-c2ccc(OC)c(-c3ccc(N4CCC4)nc3CN3C(=O)O[C@H](c4cc(C(F)(F)F)cc(C(F)(F)F)c4)[C@@H]3C)c2)c(C)s1 [Example 51] | 12
COC(=O)c1sc(-c2ccc(OC)c(-c3ccc(N4CCC4)nc3CN3C(=O)O[C@H](c4cc(C(F)(F)F)cc(C(F)(F)F)c4)[C@@H]3C)c2)c(C)c1C [Example 52] | 15
COC(=O)c1coc(-c2ccc(OC)c(-c3ccc(N4CCC4)nc3CN3C(=O)O[C@H](c4cc(C(F)(F)F)cc(C(F)(F)F)c4)[C@@H]3C)c2)c1 [Example 53] | 61

Compound | IC50 [nM]
CCOC(=O)c1csc(-c2ccc(OC)c(-c3ccc(N4CCC4)nc3CN3C(=O)O[C@H](c4cc(C(F)(F)F)cc(C(F)(F)F)c4)[C@@H]3C)c2)n1 [Example 54] | 189
CCOC(=O)c1cc(C)c(-c2ccc(OC)c(-c3ccc(N4CCC4)nc3CN3C(=O)O[C@H](c4cc(C(F)(F)F)cc(C(F)(F)F)c4)[C@@H]3C)c2)n1C [Example 56] | 5
CCOC(=O)c1c(C)c(-c2ccc(OC)c(-c3ccc(N4CCC4)nc3CN3C(=O)O[C@H](c4cc(C(F)(F)F)cc(C(F)(F)F)c4)[C@@H]3C)c2)c(C)n1C [Example 57] | 7
COC(=O)c1ccc(-c2ccc(OC)c(-c3ccc(N4CCC4)nc3CN3C(=O)O[C@H](c4cc(C(F)(F)F)cc(C(F)(F)F)c4)[C@@H]3C)c2)cn1 [Example 58] | 29
COC(=O)c1ccc(-c2ccc(OC)c(-c3ccc(N4CCC4)nc3CN3C(=O)O[C@H](c4cc(C(F)(F)F)cc(C(F)(F)F)c4)[C@@H]3C)c2)nc1 [Example 59] | 195
COc1ccc(CCC(=O)O)cc1-c1ccc(N2CCC2)nc1CN1C(=O)O[C@H](c2cc(C(F)(F)F)cc(C(F)(F)F)c2)[C@@H]1C [Example 60, 3-{3-[6-Azetidin-1-yl-2-({(4S,5R)-5-[3,5-bis(trifluoromethyl)phenyl]-4-methyl-2-oxo-1,3-oxazolidin-3-yl}methyl)pyridin-3-yl]-4-methoxyphenyl}propanoic acid] | 11
COc1ccc(CCC(=O)O)cc1-c1c(C)cc(N2CCC2)nc1CN1C(=O)O[C@H](c2cc(C(F)(F)F)cc(C(F)(F)F)c2)[C@@H]1C [Example 61, 3-{3-[6-Azetidin-1-yl-2-({(4S,5R)-5-[3,5-bis(trifluoromethyl)phenyl]-4-methyl-2-oxo-1,3-oxazolidin-3-yl}methyl)-4-methylpyridin-3-yl]-4-methoxyphenyl}propanoic acid] | 5
COc1ccc(CCC(=O)O)cc1-c1ccc(N2CCCC2)nc1CN1C(=O)O[C@H](c2cc(C(F)(F)F)cc(C(F)(F)F)c2)[C@@H]1C [Example 62] | 49
COc1ccc(CCC(=O)O)cc1-c1c(C)cc(N2CC(F)(F)C2)nc1CN1C(=O)O[C@H](c2cc(C(F)(F)F)cc(C(F)(F)F)c2)[C@@H]1C [Example 63] | 5
COc1ccc(CCC(=O)O)cc1-c1ccc(N2CC(F)(F)C2)nc1CN1C(=O)O[C@H](c2cc(C(F)(F)F)cc(C(F)(F)F)c2)[C@@H]1C [Example 64] | 13
COc1cc(F)c(CCC(=O)O)cc1-c1ccc(N2CC(F)(F)C2)nc1CN1C(=O)O[C@H](c2cc(C(F)(F)F)cc(C(F)(F)F)c2)[C@@H]1C [Example 65] | 24
COc1ccc([C@@H]2C[C@H]2C(=O)O)cc1-c1ccc(N2CC(F)(F)C2)nc1CN1C(=O)O[C@H](c2cc(C(F)(F)F)cc(C(F)(F)F)c2)[C@@H]1C [Example 66] | 8
COc1ccc([C@H]2C[C@@H]2C(=O)O)cc1-c1ccc(N2CC(F)(F)C2)nc1CN1C(=O)O[C@H](c2cc(C(F)(F)F)cc(C(F)(F)F)c2)[C@@H]1C [Example 67] | 14
COc1ccc([C@@H]2C[C@H]2C(=O)O)cc1-c1c(C)cc(N2CCC2)nc1CN1C(=O)O[C@H](c2cc(C(F)(F)F)cc(C(F)(F)F)c2)[C@@H]1C [Example 68] | 4
COc1cc(F)c(CCC(=O)O)cc1-c1c(C)cc(N2CCC2)nc1CN1C(=O)O[C@H](c2cc(C(F)(F)F)cc(C(F)(F)F)c2)[C@@H]1C [Example 69] | 5
COc1ccc(CCC(=O)O)cc1-c1c(CN2C(=O)O[C@H](c3cc(C(F)(F)F)cc(C(F)(F)F)c3)[C@@H]2C)nc(N2CCC2)c(Br)c1C [Example 70] | 4
COc1ccc([C@H]2C[C@@H]2C(=O)O)cc1-c1c(C)cc(N2CCC2)nc1CN1C(=O)O[C@H](c2cc(C(F)(F)F)cc(C(F)(F)F)c2)[C@@H]1C [Example 71] | 5
COc1ccc([C@@H]2C[C@H]2C(=O)O)cc1-c1ccc(N2CCC2)nc1CN1C(=O)O[C@H](c2cc(C(F)(F)F)cc(C(F)(F)F)c2)[C@@H]1C [Example 72] | 7
